Data from ChEMBL document CHEMBL5724696, “Autophagy assay results for EUbOPEN Chemogenomics Library” (2024).
Values joined by “and” are separate entries in the source; they are usually repeats but may differ in a detail not shown here. Equal entries are not always repeated.

Assays:
Format in all cases: functional, Homo sapiens
TERT-RPE1 = experiment: (§1) Here: values are normalized to the negative (DMSO; defined as 0% autophagy induction) and positive (250nM Torin1; mTOR inhibitor; defined as maximal inducer of autophagy = 100%) control compounds and represented as % of autophagy induction. […] The impact of autophagy induction on cells is complex and depends on the affected target. As such, the magnitude of a phenotype may not be equally mirrored in the %-value of autophagy induction and vice versa. The dynamics of the induction may indicate the mode of activation: e.g. activation via phosphorylation or a signaling cascade may occur fast, while activation via transcription factors may take considerably longer. […] Of note, treatment concentrations may be sub-optimal for specific compounds, leading to false negative annotations.; conditions: Culturing Media DMEM/F12 (1:1), 1 % Penicillin/Streptomycin, 10% Fetal bovin serum Add-On: No, Screening Media Control DMEM/F12 (1:1), Screening Media Samples DMEM/F12 (1:1)
U2OS [1] = experiment: as §1; conditions: Culturing Media DMEM, 1 % Penicillin/Streptomycin, 10% Fetal bovin serum Add-On: No, Screening Media Control DMEM, Screening Media Samples DMEM
U2OS [2] = experiment: as §1; conditions: Culturing Media DMEM, 1 % Penicillin/Streptomycin, 10% Fetal bovin serum Add-On: No, Screening Media Control DMEM, Screening Media Samples DMEM; remark: listed apart in the source
[3] = Compound Concentration 0.5 uM, Timepoint 12 hours, 12 h, 0.5 µM
[4] = Compound Concentration 0.5 uM, Timepoint 24 hours, 24 h, 0.5 µM
[5] = Compound Concentration 0.5 uM, Timepoint 36 hours, 36 h, 0.5 µM
[6] = Compound Concentration 0.5 uM, Timepoint 60 hours, 60 h, 0.5 µM
[7] = Compound Concentration 2 uM, Timepoint 24 hours, 24 h, 2 µM
[8] = Compound Concentration 2 uM, Timepoint 36 hours, 36 h, 2 µM
[9] = Compound Concentration 2 uM, Timepoint 60 hours, 60 h, 2 µM
[10] = Compound Concentration 10 uM, Timepoint 12 hours, 12 h, 10 µM
[11] = Compound Concentration 0.5 uM, Timepoint 12 hours
[12] = Compound Concentration 0.5 uM, Timepoint 24 hours
[13] = Compound Concentration 0.5 uM, Timepoint 36 hours
[14] = Compound Concentration 0.5 uM, Timepoint 60 hours
[15] = Compound Concentration 2 uM, Timepoint 12 hours
[16] = Compound Concentration 2 uM, Timepoint 24 hours
[17] = Compound Concentration 2 uM, Timepoint 36 hours
[18] = Compound Concentration 2 uM, Timepoint 60 hours
[19] = Compound Concentration 10 uM, Timepoint 12 hours
[20] = Compound Concentration 10 uM, Timepoint 24 hours
[21] = Compound Concentration 10 uM, Timepoint 36 hours
[22] = Compound Concentration 10 uM, Timepoint 60 hours
[23] = Compound Concentration 2 uM, Timepoint 12 hours, 12 h, 2 µM
[24] = Compound Concentration 10 uM, Timepoint 24 hours, 24 h, 10 µM
[25] = Compound Concentration 10 uM, Timepoint 36 hours, 36 h, 10 µM
[26] = Compound Concentration 10 uM, Timepoint 60 hours, 60 h, 10 µM

| Compound | autophagy induction (TERT-RPE1; [3]) | autophagy induction (TERT-RPE1; [4]) | autophagy induction (TERT-RPE1; [5]) | autophagy induction (TERT-RPE1; [6]) | autophagy induction (TERT-RPE1; [7]) | autophagy induction (TERT-RPE1; [8]) | autophagy induction (TERT-RPE1; [9]) | autophagy induction (TERT-RPE1; [10]) | autophagy induction (U2OS [1]; [11]) | autophagy induction (U2OS [1]; [12]) | autophagy induction (U2OS [1]; [13]) | autophagy induction (U2OS [1]; [14]) | autophagy induction (U2OS [1]; [15]) | autophagy induction (U2OS [1]; [16]) | autophagy induction (U2OS [1]; [17]) | autophagy induction (U2OS [1]; [18]) | autophagy induction (U2OS [1]; [19]) | autophagy induction (U2OS [1]; [20]) | autophagy induction (U2OS [1]; [21]) | autophagy induction (U2OS [1]; [22]) | further results |
| --- | --- | --- | --- | --- | --- | --- | --- | --- | --- | --- | --- | --- | --- | --- | --- | --- | --- | --- | --- | --- | --- |
| CCCNS(=O)(=O)Nc1ncnc(OCCOc2ncc(Br)cn2)c1-c1ccc(Br)cc1 | -0.7197% and -7.3982% | 0.659% and -8.96% | -3.018% and -8.201% | -5.286% and -10.1731% | -0.7464% and 17.5664% | -1.802% and 12.9792% | -3.01% and 8.651% | -3.714% and 17.3261% | -3.964% | -4.032% | -61.3535% | -1.132% | -0.4685% | -1.227% | -59.7666% | -0.5161% | 11.7925% | 5.282% | -57.2377% | -0.5877% | autophagy induction (U2OS [2]; [11]): 2.901%; autophagy induction (U2OS [2]; [12]): -2.846%; autophagy induction (U2OS [2]; [13]): 0.07503%; autophagy induction (U2OS [2]; [14]): -9.912%; autophagy induction (U2OS [2]; [15]): 12.0444%; autophagy induction (U2OS [2]; [16]): 9.078%; autophagy induction (U2OS [2]; [17]): 7.396%; autophagy induction (U2OS [2]; [18]): -1.934%; autophagy induction (U2OS [2]; [19]): 26.4347%; autophagy induction (U2OS [2]; [20]): 18.1089%; autophagy induction (U2OS [2]; [21]): 17.8738%; autophagy induction (U2OS [2]; [22]): 1.732% |
| O=C(O)CC1CCC2(CC1)CCN(c1cc(OC(F)(F)F)ccc1Cl)CC2 | 1.5088% and -4.208% | -1.371% and -2.379% | -4.319% and -4.033% | -5.803% and -6.663% | 2.312% and -6.096% | -2.505% and -8.733% | -5.7463% and -9.633% | 5.943% and -1.866% | 6.893% | 1.231% | -59.5433% | -1.659% | 4.528% | 2.023% | -58.8057% | 0.09301% | 1.476% | -1.647% | -59.8779% | -1.029% | autophagy induction (TERT-RPE1; [23]): 7.834% and -3.775%; autophagy induction (TERT-RPE1; [24]): 5.6585% and -2.656%; autophagy induction (TERT-RPE1; [25]): 3.294% and -3.964%; autophagy induction (TERT-RPE1; [26]): -1.174% and -1.531%; autophagy induction (U2OS [2]; [11]): -7.253%; autophagy induction (U2OS [2]; [12]): -0.0788%; autophagy induction (U2OS [2]; [13]): -0.8569%; autophagy induction (U2OS [2]; [14]): -4.709%; autophagy induction (U2OS [2]; [15]): -6.392%; autophagy induction (U2OS [2]; [16]): -5.775%; autophagy induction (U2OS [2]; [17]): -5.315%; autophagy induction (U2OS [2]; [18]): -3.59%; autophagy induction (U2OS [2]; [19]): -7.404%; autophagy induction (U2OS [2]; [20]): -7.084%; autophagy induction (U2OS [2]; [21]): -0.9405%; autophagy induction (U2OS [2]; [22]): -11.9422% |
| COc1ccc(NS(=O)(=O)c2sc3ccc(Cl)cc3c2C)cc1N1CCNCC1.Cl | -2.268% and 1.364% | -0.6721% and -2.131% | -2.429% and -0.9432% | -2.224% and -1.994% | 2.1639% and -0.4459% | 0.7328% and -1.399% | 3.483% and -0.5872% | 10.6024% and -4.741% | 2.987% | -0.6318% | -59.945% | -1.761% | 6.036% | -0.4148% | -59.1656% | -2.731% | 1.788% | 0.7642% | -61.0668% | -6.058% | autophagy induction (TERT-RPE1; [23]): 1.355% and 0.7844%; autophagy induction (TERT-RPE1; [24]): 10.2969% and -5.794%; autophagy induction (TERT-RPE1; [25]): 13.8741% and -5.163%; autophagy induction (TERT-RPE1; [26]): 16.669% and -5.902%; autophagy induction (U2OS [2]; [11]): -11.3104%; autophagy induction (U2OS [2]; [12]): -5.358%; autophagy induction (U2OS [2]; [13]): -7.917%; autophagy induction (U2OS [2]; [14]): -7.314%; autophagy induction (U2OS [2]; [15]): 6.008%; autophagy induction (U2OS [2]; [16]): 2.399%; autophagy induction (U2OS [2]; [17]): -3.71%; autophagy induction (U2OS [2]; [18]): -14.5759%; autophagy induction (U2OS [2]; [19]): 10.7956%; autophagy induction (U2OS [2]; [20]): 3.064%; autophagy induction (U2OS [2]; [21]): -4.691%; autophagy induction (U2OS [2]; [22]): -6.499% |
